Test results from ChEMBL document CHEMBL1201862, “PubChem BioAssay data set” (2004).
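All cell lines were grown in 96-well plates and treated with compound for 48 hours. The concentration for 50% growth inhibition is given as GI50.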 Activity calls are given as the source filed them. No stated cut-off is given here; in the data, active = GI50 up to about 1.1 µM and inactive = higher.

Experiments:
Experiment in all cases: NCI-60 cell line screen, 48 h
[1] = test system: A498
[2] = test system: A549
[3] = test system: CAKI-1
[4] = test system: EKVX
[5] = test system: HCC 2998
[6] = test system: HCT-116
[7] = test system: HT-29
[8] = test system: M14
[9] = test system: NCI-H23
[10] = test system: NCI-H460
[11] = test system: NCI-H522
[12] = test system: OVCAR-3
[13] = test system: OVCAR-4
[14] = test system: RXF 393
[15] = test system: SF-295
[16] = test system: SF-539
[17] = test system: SNB-19
[18] = test system: UACC-257
[19] = test system: HCT-15

Row | SMILES | GI50 [1] | GI50 [2] | GI50 [3] | GI50 [4] | GI50 [5] | GI50 [6] | GI50 [7] | GI50 [8] | GI50 [9] | GI50 [10] | GI50 [11] | GI50 [12] | GI50 [13] | GI50 [14] | GI50 [15] | GI50 [16] | GI50 [17] | GI50 [18] | GI50 [19] [µM]
1 | COC1C=C(Nc2cccc(Cl)c2)C(=O)C1 (centres undefined) | 15.7 µM (inactive) | 18.5 µM (inactive) | 50.9 µM (inactive) | 29.4 µM (inactive) | 53.8 µM (inactive) | 40.2 µM (inactive) | 65.3 µM (inactive) | > 100 µM (inactive) | 41.5 µM (inactive) | 44.4 µM (inactive) | 24.9 µM (inactive) | 65.3 µM (inactive) | > 100 µM (inactive) | 23.4 µM (inactive) | 54 µM (inactive) | 58.2 µM (inactive) | 64.3 µM (inactive) | > 100 µM (inactive) | 
2 | COc1ccc(N2C(=O)C3c4[nH]c5ccccc5c4C4CCCCC4C3C2=O)cc1 (centres undefined) | 24.6 µM (inactive) | 18.3 µM (inactive) | 51.3 µM (inactive) | 17.3 µM (inactive) | 18.3 µM (inactive) | 7.11 µM (inactive) | 23.4 µM (inactive) | 18 µM (inactive) | 25.8 µM (inactive) | 19.5 µM (inactive) | 18 µM (inactive) | > 100 µM (inactive) | 5.4 µM (inactive) | 20.8 µM (inactive) | 11.3 µM (inactive) | 14.5 µM (inactive) | 50.6 µM (inactive) | 27.8 µM (inactive) | > 100
3 | C=C1C(=O)OC2CC(C)C3C=CC(=O)C3CC12 (centres undefined) | 11.5 µM (inactive) | 7.93 µM (inactive) | 2.17 µM (inactive) | 12.1 µM (inactive) | 4.73 µM (inactive) | 1.26 µM (inactive) | 1.72 µM (inactive) | 1.62 µM (inactive) | 1.83 µM (inactive) | 2.96 µM (inactive) | 0.61 µM (active) | 5.13 µM (inactive) | 2.95 µM (inactive) | 1.53 µM (inactive) | 14.6 µM (inactive) | 2.08 µM (inactive) | 15.4 µM (inactive) | 2.02 µM (inactive) | 1.85
4 | COc1cc2c(cc1OC)C1[C@@H](c3ccccc3)OCN1CC2 (some centres undefined) | > 100 µM (inactive) | > 100 µM (inactive) | > 100 µM (inactive) | > 100 µM (inactive) | > 100 µM (inactive) | > 82.2 µM (inactive) | > 100 µM (inactive) | > 100 µM (inactive) | > 100 µM (inactive) | > 100 µM (inactive) | > 100 µM (inactive) | > 100 µM (inactive) | > 100 µM (inactive) | > 100 µM (inactive) | > 100 µM (inactive) | > 100 µM (inactive) | > 100 µM (inactive) | > 100 µM (inactive) | > 90.6
5 | COc1ccc2nc(C(=O)c3ccccc3)c(C)cc2c1 | 2.74 µM (inactive) | 6.28 µM (inactive) | 7.91 µM (inactive) | 5.26 µM (inactive) | 6.01 µM (inactive) | 4.63 µM (inactive) | 3.59 µM (inactive) | 3.74 µM (inactive) | 3.71 µM (inactive) | 7.24 µM (inactive) | 1.88 µM (inactive) | 10.3 µM (inactive) | 97.1 µM (inactive) | 2.7 µM (inactive) | 2.81 µM (inactive) | 3.05 µM (inactive) | 9.16 µM (inactive) | 4.14 µM (inactive) | 3.3
